# How the values were obtained:
# [1] = target: T1, human recombinant histamine H1 receptor (Homo sapiens, UniProt P35367); assay: Histamine H1 radioligand binding ([3H]Pyrilamine); details: compound at 1 μM; read-out: Histamine Binding (1 μM) H1, percent inhibition of specific binding
# T1 construct: expressed in transfected cells; host or cells: CHO cells
# Summary of the method: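 Membranes from CHO cells expressing the receptor were incubated with compound and 1.2 nM [3H]pyrilamine for 180 min at 25 °C in 50 mM Tris-HCl pH 7.4 with MgCl2, NaCl and sucrose; 1 μM pyrilamine defined non-specific binding. Filter-bound radioactivity was counted.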
# [2] = target: T2, human recombinant serotonin (5-Hydroxytryptamine) 5-HT2A receptor (Homo sapiens, UniProt P28223); assay: Serotonin 5-HT2A radioligand binding ([3H]Ketanserin); details: compound at 1 μM; read-out: Serotonin (1 μM) 5-HT2A, percent inhibition of specific binding
# T2 construct: expressed in transfected cells; host or cells: CHO-K1 cells
# T2 sequence (P28223 whole entry): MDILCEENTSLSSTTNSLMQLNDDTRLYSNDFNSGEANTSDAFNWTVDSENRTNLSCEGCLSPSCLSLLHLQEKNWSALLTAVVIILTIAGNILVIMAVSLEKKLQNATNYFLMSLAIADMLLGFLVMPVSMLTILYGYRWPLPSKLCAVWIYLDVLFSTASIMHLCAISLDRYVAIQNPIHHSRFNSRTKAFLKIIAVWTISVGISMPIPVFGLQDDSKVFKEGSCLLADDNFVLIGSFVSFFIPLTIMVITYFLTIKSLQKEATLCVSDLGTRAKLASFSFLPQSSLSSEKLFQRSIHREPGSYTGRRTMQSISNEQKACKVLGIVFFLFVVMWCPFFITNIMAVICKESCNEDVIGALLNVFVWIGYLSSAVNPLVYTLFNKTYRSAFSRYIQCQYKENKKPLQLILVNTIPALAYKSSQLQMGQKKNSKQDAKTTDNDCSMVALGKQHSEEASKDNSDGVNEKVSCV
# Summary of the method: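 Percent inhibition of specific [3H]ketanserin (0.5 nM) binding, filtration read-out, with compounds at ≤1 μM (1% DMSO vehicle). Receptor source: recombinant human 5-HT2A in CHO-K1 cells, 50 mM Tris-HCl pH 7.4, 60 min, 25 °C; 1 μM mianserin gives nonspecific binding.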
# [3] = target: T3, human recombinant serotonin (5-Hydroxytryptamine) 5-HT2C receptor (Homo sapiens, UniProt P28335); assay: Serotonin 5-HT2C radioligand binding ([3H]Mesulergine); details: compound at 1 μM; read-out: Serotonin (1 μM) 5-HT2C, percent inhibition of specific binding
# T3 construct: expressed in transfected cells; host or cells: CHO-K1 cells
# T3 sequence (P28335 33-458): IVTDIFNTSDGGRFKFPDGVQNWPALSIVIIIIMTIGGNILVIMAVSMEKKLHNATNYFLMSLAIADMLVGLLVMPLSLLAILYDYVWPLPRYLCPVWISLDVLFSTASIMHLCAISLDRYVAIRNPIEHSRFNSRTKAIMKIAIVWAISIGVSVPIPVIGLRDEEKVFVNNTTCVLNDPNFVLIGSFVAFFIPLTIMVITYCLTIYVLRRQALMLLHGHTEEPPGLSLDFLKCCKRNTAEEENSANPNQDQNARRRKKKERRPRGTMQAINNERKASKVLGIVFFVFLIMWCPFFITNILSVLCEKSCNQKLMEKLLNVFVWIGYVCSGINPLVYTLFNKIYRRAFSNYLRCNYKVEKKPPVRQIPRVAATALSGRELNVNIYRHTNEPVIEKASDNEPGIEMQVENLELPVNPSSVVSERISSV
# Summary of the method: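 Membranes from CHO-K1 cells expressing human 5-HT2C, incubated with 1 nM [3H]mesulergine for 60 min at 25 °C in 50 mM Tris-HCl pH 7.4 with ascorbic acid and pargyline.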
# [4] = target: T4, human recombinant serotonin (5-Hydroxytryptamine) 5-HT6 receptor (Homo sapiens, UniProt P50406); assay: Serotonin 5-HT6 radioligand binding ([3H]LSD); details: compound at 1 μM; read-out: Serotonin (1 μM) 5-HT6, percent inhibition of specific binding
# T4 construct: expressed in transfected cells; host or cells: human HeLa cells
# T4 sequence (P50406 whole entry): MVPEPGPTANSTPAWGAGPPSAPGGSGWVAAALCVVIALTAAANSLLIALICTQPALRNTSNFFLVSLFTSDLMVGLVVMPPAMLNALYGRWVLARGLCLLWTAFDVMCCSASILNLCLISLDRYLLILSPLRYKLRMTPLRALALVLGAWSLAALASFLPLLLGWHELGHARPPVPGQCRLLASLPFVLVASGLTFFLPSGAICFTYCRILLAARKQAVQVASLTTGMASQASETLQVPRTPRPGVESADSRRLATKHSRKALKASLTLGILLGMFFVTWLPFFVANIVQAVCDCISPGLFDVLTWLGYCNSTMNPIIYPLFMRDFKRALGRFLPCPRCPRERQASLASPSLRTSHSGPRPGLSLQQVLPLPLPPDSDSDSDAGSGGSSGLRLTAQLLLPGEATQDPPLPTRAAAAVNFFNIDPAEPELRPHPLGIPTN
# Summary of the method: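 Human recombinant 5-HT6 receptor from HeLa cells incubated with 1.5 nM [3H]LSD for 120 min at 37° C in 50 mM Tris-HCl pH 7.4, 150 mM NaCl, 2 mM ascorbic acid, 0.001% BSA. Nonspecific binding defined with 5 μM serotonin; bound ligand counted after filtration.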
# T1 sequence (P35367 whole entry): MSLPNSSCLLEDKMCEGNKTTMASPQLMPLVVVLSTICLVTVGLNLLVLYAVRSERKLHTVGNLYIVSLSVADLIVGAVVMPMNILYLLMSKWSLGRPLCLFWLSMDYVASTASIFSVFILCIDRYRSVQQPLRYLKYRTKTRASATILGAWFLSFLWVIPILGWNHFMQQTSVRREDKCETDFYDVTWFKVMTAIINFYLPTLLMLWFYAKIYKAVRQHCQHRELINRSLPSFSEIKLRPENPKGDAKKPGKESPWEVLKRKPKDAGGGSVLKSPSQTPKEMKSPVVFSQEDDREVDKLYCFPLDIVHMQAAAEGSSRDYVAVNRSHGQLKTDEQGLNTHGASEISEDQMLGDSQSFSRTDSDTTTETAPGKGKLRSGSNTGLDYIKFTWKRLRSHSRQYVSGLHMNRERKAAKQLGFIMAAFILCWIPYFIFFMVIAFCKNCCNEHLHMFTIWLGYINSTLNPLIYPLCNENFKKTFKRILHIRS
SMILES,inhibition at 1 µM [1] [%],inhibition at 1 µM [2] [%],inhibition at 1 µM [3] [%],inhibition at 1 µM [4] [%]
"CN1CCc2c(n(CCc3ccccc3Cl)c3ccc(Cl)cc23)CC1 [Compound No. 29, 6-(2-chlorophenethyl)-9-chloro-1,2,3,4,5,6-hexahydro-3-methylazepino[4,5-b]indole]",98,100,101,103
"CN1CCc2c(n(/C=C/c3ccc(F)cc3)c3ccc(Cl)cc23)CC1 [Compound No. 234, (E)-9-chloro-6-(4-fluorostyryl)-3-methyl-1,2,3,4,5,6-hexahydroazepino[4,5-b]indole]",99,101,98,103
"CN1CCc2c(n(C#Cc3ccc(F)cc3)c3ccc(Cl)cc23)CC1 [Compound No. 281, 9-chloro-6-((4-fluorophenyl)ethynyl)-3-methyl-1,2,3,4,5,6-hexahydroazepino[4,5-b]indole]",56,100,98,97
"Cc1ccc2c(c1)c1c(n2CC(=O)NC2CCCCC2)CCN(C)CC1 [Compound No. 22, N-cyclohexyl-2-(2,3,4,5-tetrahydro-3,9-dimethylazepino[4,5-b]indol-6(1H)-yl)acetamide]",12,-2,-4,-12
"Cc1ccc2c(c1)c1c(n2CCc2ccncc2)CCN(C)CC1 [Compound No. 6, 1,2,3,4,5,6-hexahydro-3,9-dimethyl-6-(2-(pyridin-4-yl)ethyl)azepino[4,5-b]indole]",103,96,92,82
"Cc1ccc2c(c1)c1c(n2CC(O)c2ccccc2)CCN(C)CC1 (stereo not drawn) [Compound No. 25, 2-(2,3,4,5-tetrahydro-3,9-dimethylazepino[4,5-b]indol-6(1H)-yl)-1-phenylethanol]",91,97,94,93
"COc1ccc(/C=C/n2c3c(c4cc(C)ccc42)CCN(C)CC3)c(F)c1 [Compound No. 230, (E)-6-(2-fluoro-4-methoxystyryl)-3,9-dimethyl-1,2,3,4,5,6-hexahydroazepino[4,5-b]indole]",95,97,96,100
"Cc1ccc(C(O)Cn2c3c(c4cc(Cl)ccc42)CCN(C)CC3)cc1 (stereo not drawn) [Compound No. 26, 2-(9-chloro-2,3,4,5-tetrahydro-3-methylazepino[4,5-b]indol-6(1H)-yl)-1-p-tolylethanol]",97,100,93,87
"COc1ccc(C(O)Cn2c3c(c4cc(Cl)ccc42)CCN(C)CC3)cc1F (stereo not drawn) [Compound No. 67, 2-(9-chloro-2,3,4,5-tetrahydro-3-methylazepino[4,5-b]indol-6(1H)-yl)-1-(3-fluoro-4-methoxyphenyl) ethanol]",100,100,93,86
"CN1CCc2c(n(CCc3ccncc3)c3ccc(Cl)cc23)CC1 [Compound No. 5, 9-chloro-1,2,3,4,5,6-hexahydro-3-methyl-6-(2-(pyridin-4-yl)ethyl)azepino[4,5-b]indole]",100,96,90,93
"Cc1ccc2c(c1)c1c(n2CC(=O)N(C)C2CCCCC2)CCN(C)CC1 [Compound No. 232, N-cyclohexyl-2-(3,9-dimethyl-2,3,4,5-tetrahydroazepino[4,5-b]indol-6(1H)-yl)-N-methylacetamide]",95,70,93,20
"Cc1ccc2c(c1)c1c(n2CC(O)c2ccc(C)nc2)CCN(C)CC1 (stereo not drawn) [Compound No. 23, 2-(2,3,4,5-tetrahydro-3,9-dimethylazepino[4,5-b]indol-6(1H)-yl)-1-(6-methylpyridin-3-yl)ethanol]",58,67,37,17

# From patent US9481676B2, “Azepino[4,5-B]indoles and methods of use” (Medivation Technologies, Inc., priority 2008, dated 2016)
